Measured values as given in US20070129434A1, “Analgesics and methods of use” (priority 2002, published 2007).
Values joined by “and” are separate entries in the source; they are usually repeats but may differ in a detail not shown here. Identical values can stand only once. Counter-ions that a name gives are not always drawn.

What was measured:
[1] = cited from earlier work
[2] = target: T1, α3β4 receptor agonist recognition sites (Rattus norvegicus, UniProt P04757+P12392); assay: [3H]EB ligand binding in membrane homogenates from KXα3β4R2 cells
T1 construct: expressed in transfected cells
T1 sequence (P04757 26-499): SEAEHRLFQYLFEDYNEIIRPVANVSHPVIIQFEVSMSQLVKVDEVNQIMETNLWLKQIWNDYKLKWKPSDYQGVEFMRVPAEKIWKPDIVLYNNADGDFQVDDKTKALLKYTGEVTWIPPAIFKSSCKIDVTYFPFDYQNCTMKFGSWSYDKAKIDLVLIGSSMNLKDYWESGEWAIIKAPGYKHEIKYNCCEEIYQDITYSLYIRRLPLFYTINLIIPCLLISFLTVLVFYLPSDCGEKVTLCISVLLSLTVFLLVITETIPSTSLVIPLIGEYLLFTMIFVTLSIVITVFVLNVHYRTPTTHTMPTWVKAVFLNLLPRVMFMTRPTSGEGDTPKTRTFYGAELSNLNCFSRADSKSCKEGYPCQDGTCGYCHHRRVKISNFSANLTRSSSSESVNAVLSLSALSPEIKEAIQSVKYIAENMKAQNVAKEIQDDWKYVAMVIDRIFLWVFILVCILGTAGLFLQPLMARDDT
T1 sequence (P12392 21-495): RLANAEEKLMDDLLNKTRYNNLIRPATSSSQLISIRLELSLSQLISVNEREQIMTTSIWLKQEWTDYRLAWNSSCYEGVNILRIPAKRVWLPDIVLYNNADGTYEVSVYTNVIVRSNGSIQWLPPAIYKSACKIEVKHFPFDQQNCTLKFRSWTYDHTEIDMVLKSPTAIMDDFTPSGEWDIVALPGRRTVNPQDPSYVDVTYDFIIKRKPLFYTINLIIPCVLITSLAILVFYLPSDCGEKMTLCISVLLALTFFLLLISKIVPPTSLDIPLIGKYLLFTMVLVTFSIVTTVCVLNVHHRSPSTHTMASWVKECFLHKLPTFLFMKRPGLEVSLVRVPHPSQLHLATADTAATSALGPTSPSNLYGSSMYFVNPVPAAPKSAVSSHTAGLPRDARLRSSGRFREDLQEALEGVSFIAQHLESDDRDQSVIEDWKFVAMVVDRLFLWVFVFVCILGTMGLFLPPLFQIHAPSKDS
Text: Bound and free ligands were separated by vacuum filtration through Whatman GF/C filters treated with 0.5% polyethylenimine. […] Specific binding was defined as the difference between total binding and nonspecific binding.

[3] = target: T2, rat α3β4 nAChRs (Rattus norvegicus, UniProt P04757+P12392); assay: cell-based; format: cell-based; settings: for IC50: inhibition of 86Rb+ efflux stimulated by 100 μM nicotine, KXα3β4R2 cells, mean ± standard error; for type of receptor blockade: nicotine concentration-response curves in presence of antagonist
T2 construct: expressed in transfected cells
T2 sequence (P04757 26-499): as the sequence (P04757 26-499) above
T2 sequence (P12392 21-495): as the sequence (P12392 21-495) above
Description: Cell Culture. The cell line KXα3β4R2 was established previously by stably cotransfecting human embryonic kidney-293 cells with the rat α3 and β4 nAChR subunits genes (Xiao et al., 1998). Cells were maintained in minimum essential medium supplemented with 10% fetal bovine serum, 100 units/ml penicillin G, […], and 0.7 mg/ml of geneticin (G418) at 37° C. with 5% CO2 in a humidified incubator.
^86Rb^+ Efflux Assay. Function of nAChRs expressed in the transfected cells was measured using a ^86Rb^+ efflux assay as described previously (Xiao et al., 1998). In brief, cells in the selection growth medium were plated into 24-well plates coated with poly(D-lysine). The plated cells were grown at 37° C. for 18 to 24 h to reach 70 to 95% confluence. The cells were then incubated in growth medium (0.5 ml/well) containing ^86Rb^+ (2 μCi/ml) for 4 h at 37° C. The loading mixture was then aspirated and the cells were washed three times with buffer (15 mM HEPES, 140 mM NaCl, 2 mM KCl, 1 mM MgSO4, 1.8 mM CaCl, 11 mM glucose, pH 7.4; 1 ml/well) for 30 s, 5 min, and 30 s, respectively. One milliliter of buffer, with or without compounds to be tested, was then added to each well. After incubation for 2 min, the assay buffer was collected for measurements of ^86Rb^+ released from the cells. Cells were then lysed by adding 1 ml of 100 mM NaOH to each well, and the lysate was collected for determination of the amount of ^86Rb^+ that was in the cells at the end of the efflux assay. Radioactivity of assay samples and lysates was measured by liquid scintillation counting. Total loading (cpm) was calculated as the sum of the assay sample and the lysate of each well. The amount of ^86Rb^+ efflux was expressed as a percentage of ^86Rb^+ loaded.
Experiments with antagonists were done in two different ways. […] EC50, Emax, and IC50, values were determined by nonlinear least-squares regression analyses (GraphPad, San Diego, Calif.).

[4] = system: glutamate stimulated catecholamine release; format: cell-based, rat; settings: 1 mM glutamate for 2 min, hippocampus and striatum slices; for block of glutamate stimulated catecholamine release: 10 μM
Description: The hippocampus and striatum are both important and well-studied anatomical areas of the brain. The hippocampus is associated with learning and memory functions while the striatus is linked to motor function. Slices were loaded with [^3H]norepinephrine or [^3H]dopamine and then exposed to 1 mM glutamate for 2 min in the absence or presence of MK-801, d-methadone or (+)-EDDP. The baseline release was measured in the absence of glutamate.

[5] = system: morphine, methamphetamine, and nicotine self-administration; settings: rats, 5-30 mg/kg; cited from earlier work
[6] = system: Swiss-Webster mice; assay: Warm-water tail-withdrawal nociception assay; format: in vivo; settings: either enantiomer, 40 μg intracerebrally
Description: To confirm their suspicions that the compounds of the present invention, do in fact have an analgesic effect, the inventors experimented with mice. […] Each enantiomer of EDDP, in 40 μg doses, was administered intracerebrally to the mice. The animals were monitored for baseline sensitivity using the warm-water tail-withdrawal nociception assay and the latency to tail withdrawal was monitored as a measurement of analgesia. […] Thus, it is clear that the d-methadone metabolite EDDP has significant analgesic effect. Likewise, the metabolite EMDP and the structural analogs of both EDDP and EMDP are expected to do the same.

[7] = blocking nicotine-stimulated 86Rb+ efflux

For `CCC(=O)C(CC(C)N(C)C)(c1ccccc1)c1ccccc1` (racemic) [methadone, (O)-Methadone hydrochloride], the steady-state plasma concentration ([1]; patients taking methadone chronically) is listed as “exceed 1 μM”, the “plasma concentration following a single dose” value ([1]; single dose of methadone) is listed as “approximately 0.25 μM” and the “competition for [3H]EB binding sites (in words)” value [2] is listed as “does not compete effectively”. The “block of nicotine-stimulated 86Rb+ efflux” value ([3]; 100 μM nicotine plus 200 μM methadone) was “completely blocked”, the IC50 [3] was about 2000 nM and the “increase of 86Rb+ efflux (agonist effect)” value ([3]; methadone alone at concentrations up to 1 mM) was “did not increase”. For the same molecule, the “type of receptor blockade” value [3] was “noncompetitive mechanism”.
With `CCC1=N[C@H](C)CC1(c1ccccc1)c1ccccc1` [(+)-EMDP, R-(+)-2-ethyl-5-methyl-3,3-diphenyl-1-pyrroline hydrochloride] the IC50 [3] was 5800 ± 1000 nM.
For `CCC(=O)C(C[C@H](C)N(C)C)(c1ccccc1)c1ccccc1.Cl` [(+)-Methadone, S-(+)-methadone hydrochloride], the “block of glutamate stimulated catecholamine release” value [4] was “partial block” and the IC50 [3] was 2500 ± 200 nM.
In the case of `CCC1=[N+](C)[C@@H](C)CC1(c1ccccc1)c1ccccc1` [(−)-EDDP, S-(−)-2-ethyl-1,5-dimethyl-3,3-diphenylpyrrolinium perchlorate], the IC50 [3] is reported as 400 ± 100 nM.
In the case of `CCC1=N[C@@H](C)CC1(c1ccccc1)c1ccccc1` [(−)-EMDP, S-(−)-2-ethyl-5-methyl-3,3-diphenyl-1-pyrroline hydrochloride], the IC50 [3] is reported as 6300 ± 700 nM.
For `CCC(=O)C(C[C@@H](C)N(C)C)(c1ccccc1)c1ccccc1` [(−)-Methadone, R-(−)-methadone hydrochloride], the IC50 ([3]; hydrochloride) was 1900 nM and 2000 nM.
In the case of `COc1ccc2c(c1)[C@]13CCCC[C@@H]1[C@H](C2)N(C)CC3` [Dextromethorphan], the “self-administration of morphine, methamphetamine, and nicotine” value [5] is listed as “decrease” and the IC50 [3] is listed as 8900 ± 1100 nM.
In the case of `CN1CC[C@@]23CCCC[C@@H]2[C@@H]1Cc1ccc(O)cc13` [Dextrorphan], the IC50 [3] is reported as 29600 ± 5700 nM.
For `C/C=C1/N(C)C(C)CC1(c1ccccc1)c1ccccc1` (stereo not shown) [EDDP], the tail withdrawal latency [6] is listed as “increased”, the peak plasma concentration ([1]; following administration of methadone) is listed as about 0.2 µM and the “potency relative to mecamylamine” value [3, 7] is listed as “twice as potent”. The “potency relative to methadone” value [3, 7] was “about 5 times more potent” and the IC50 [3] was about 400 nM.
With `CC[C@H](OC(C)=O)C(C[C@H](C)N(C)C)(c1ccccc1)c1ccccc1.Cl` [LAAM, (−)-α-acetylmethadol hydrochloride] the IC50 [3] was 2500 ± 400 nM and the “type of receptor blockade” value [3] was “noncompetitive blockers”.
For `C[C@]12N[C@H](Cc3ccccc31)c1ccccc12` [MK-801], the “block of glutamate stimulated catecholamine release” value [4] was “partial block” and the IC50 [3] was 26600 ± 9600 nM.
Work on `CCC(=O)O[C@](Cc1ccccc1)(c1ccccc1)[C@H](C)CNC` [Norpropoxyphene, (+)-α-N-norpropoxyphene maleate] yielded an IC50 [3] of 1800 ± 100 nM.
Molecule `CCC(=O)O[C@](Cc1ccccc1)(c1ccccc1)[C@H](C)CN(C)C` [Propoxyphene, (+)-α-propoxyphene hydrochloride] has an IC50 [3] of 2700 ± 400 nM.
With `CN1CCCC1c1cccnc1` (stereo not shown) [nicotine] the “stimulation of 86Rb+ efflux over basal levels” value [3] was “approximately 10 fold”.
For “R-(+)-2-ethyl-1,5-dimethyl-3,3-diphenylpyrrolinium perchlorate [(+)-EDDP]”, the “effect on glutamate stimulated catecholamine release” value ([4]; until 100 μM) was “no effect”, the IC50 [3] was 400 ± 200 nM and the “type of receptor blockade” value [3] was “noncompetitive blockers”.
